According to US20160228575A1, “NARINGENIN COMPLEXES AND METHODS OF USE THEREOF” (THE GENERAL HOSPITAL CORPORATION, priority 2008, published 2016):
Read-outs that look alike come from different tables or passages of the source.

Legend:
HMGR = HMGR transcription by qPCR in infected Huh7.5.1 cells; type: cell-based, human; settings: naringenin 24 hours, infected Huh-7.5.1 cells
[1] = guinea pigs, intraperitoneal injection; cited from earlier work
[2] = rats, intraperitoneal injection; cited from earlier work
PPARα = PPARα transcription in infected Huh7.5.1 cells; type: cell-based, human; settings: short term 24 hours stimulation of Huh7.5.1 cells
Experimental: (§1) Virus samples collected in each experiment were filtered with a 0.45 μm filter and a volume of 100 μL for each sample was heated at 95° C. for 45 min. The reverse transcription reaction step was performed on a Mastercycler epgrdientS (Eppendorf) instrument using Omniscript and Sensiscript RT Kits (Qiagen). Real time PCR was performed on a Light Cycler LC-24 (Idaho Technology), using SuperScript™ III Platinum® CellsDirect Two-Step qRT-PCR Kits (Invitrogen) for quantitative PCR. For reverse transcription step, 2 μL of sample without RNA extraction were used. For real time PCR, 1 μL of the reverse transcription reactions was used. All reactions were performed according to the manufacturer's instructions using the primers detailed in Table 1.
(§2) PPARα and LXRα are ligand-activated transcription factors which control much of the fasted-to-fed transition and were previously shown to be important in the development of inflammation and insulin resistance. […] Following a short term 24 hours stimulation of Huh7.5.1 cells PPARα transcription increased by 86%, while LXRα was decreased by 25%. PPARα is the target of fibrates and plays a major role in the downregulation of inflammation, increasing sensitivity to insulin, and modulating dyslipidemia.

[3] = tested on: primary human hepatocytes
ACAT2 = ACAT2 transcription by qPCR in infected Huh7.5.1 cells; type: cell-based, human; settings: naringenin 24 hours, infected Huh-7.5.1 cells
LXRα = LXRα transcription in infected Huh7.5.1 cells; type: cell-based, human; settings: short term 24 hours stimulation of Huh7.5.1 cells
Experimental: as §1, §2

[4] = tested on: HCV (JFH-1) secreted by infected Huh-7.5.1 cells; assay: HCV secretion by JFH-1 infected Huh-7.5.1 cells (HCV core antigen ELISA, HCV positive strand RNA qPCR); type: cell-based, Hepatitis C virus
Experimental: (§3) The Huh-7.5.1 human hepatoma cell line and a plasmid containing the JFH-1 genome were kindly provided by Dr. Chisari (Scripps Research Institute, CA) and Dr. Wakita (National Institute of Infectious Diseases, Tokyo) respectively. Huh-7.5.1 cells were cultured in DMEM medium supplemented with 10% FBS, 200 units/ml penicillin and […] streptomycin in a 5% CO2-humidified incubator at 37° C. In vitro transcribed genomic JFH-1 RNA was delivered to cells by liposome-mediated transfection as described by Zhong et al. (2005)(8). Infected Huh-7.5.1 cells were passaged every 3 days and used at passage <15. The presence of HCV in these cells and corresponding supernatants were determined by quantitative Polymerase Chain Reaction (qPCR) and immunofluorescence staining. Primary human hepatocytes were purchased from BD Biosciences (San Jose, Calif.) cultured on a collagen-coated 12 well plate in C+H culture media composed of DMEM supplemented with 10% heat-inactivated FBS, 200 U/mL penicillin/streptomycin, 7.5 μg/mL hydrocortisone, 20 ng/mL EGF, 14 ng/mL glucagons and 0.5 U/mL insulin. The media was supplemented with 2% DMSO for long-term culture of the primary cells.
(§4) HCV-infected Huh-7.5.1 cells were plated on a 6-well plate at a density of 1×10^5 cells/cm^2 and cultured overnight in standard medium. Prior to the beginning of the experiment, the cells were washed 3 times with PBS and cultured with DMEM containing 5% lipoprotein-free FBS. Oleate, Insulin, Naringenin, and Brefeldin A were added at this time as described in the text. Following 24 hours of incubation, the plate was gently agitated to release mechanically bound particles, the media was collected, filtered to remove cellular debris, and stored at −80° C. for further analysis. The attached cells were washed 3 times with PBS, harvested, pelleted and stored at −80° C. for further analysis.
Huh-7.5.1 secreted HCV core antigen was detected in the media using Wako Chemicals (Cambridge, Mass.) ORTHO HCV antigen ELISA kit. Media was used as is, and the assay was carried out according to manufacturer's directions.
as §1
However, this experiment was carried out on cells continuously producing the virus. Long-term treatment could potentially have a greater effect. […] This treatment is compared to the current standard-of-care, 1000 i.u. of Interferon α (IFNα). Both treatments lowered HCV RNA to a similar level, 96±5% and 93±5% respectively.

ApoB [5] = assay: ApoB secretion by JFH-1 infected Huh-7.5.1 cells (human ApoB ELISA); type: cell-based; settings: 24 hours, brefeldin A 2.5 μg/ml
Experimental: as §4
Huh-7.5.1 and primary human hepatocytes secreted ApoB was detected in the media using ALerCHEK, Inc (Portland, Me.) total human ApoB ELISA kit. Media was diluted 1:10 with the specimen diluent, and the assay was carried out according to manufacturer's directions.
HCV-infected Huh-7.5.1 cells were plated T-25 tissue culture flasks at a density of 1×10^5 cells/cm^2 and cultured overnight in standard medium. Prior to silencing, the cells were washed 3 times with PBS and media was replaced with OptiMEM basal medium. SureSilencing shRNA (GFP) plasmids against human ApoB100 as well as shRNA plasmid control (500 ng/ml) were combined with lipofectamine 2000 in OptiMEM and incubated with the cells overnight. SureSilencing shRNA plasmids code for GFP which was used to sort the transfected Huh7.5.1 cells, using FACSAria (BD Biosciences) located at the Partners AIDS Research Center. Transfected cells (10% of the total population) were sorted directly into a 12-well plate and allowed to adhere overnight. Culture media was conditioned by the transfected cells for 24 hours and analyzed as described above.

ApoB [6] = assay: ApoB secretion by primary human hepatocytes (human ApoB ELISA); type: cell-based; settings: 200 μM naringenin, 24 hours
Experimental: as §3, with “The media was supplemented with 2% DMSO for long-term culture of the primary cells.” left out
Huh-7.5.1 and primary human hepatocytes secreted ApoB was detected in the media using ALerCHEK, Inc (Portland, Me.) total human ApoB ELISA kit. […]
To assess the potential of naringenin-based treatment, we measured ApoB secretion in primary human hepatocytes following 24 hours stimulation with naringenin. […]

[7] = 24 hours, brefeldin A 2.5 μg/ml

O=C1C[C@@H](c2ccc(O)cc2)Oc2cc(O)cc(O)c21 [naringenin]
reduction of HMGR transcription (HMGR): 57%±3%
LD50 (50% kill) [1]: 2000 mg/kg
LD50 (50% kill) [2]: 2000 mg/kg
increase of PPARα transcription (PPARα): 86%
concentration up to which naringenin is non-toxic to freshly isolated human hepatocytes ([3]; 24 hours exposure): greater than 1000 μM
naringenin concentration above which human hepatocyte viability dropped significantly ([3]; 24 hours exposure): greater than 1000 μl
human hepatocyte viability ([3]; human, 24 h, 200 μM): 81%±3%
reduction of ACAT2 transcription (ACAT2): 55%±7%
decrease of LXRα transcription (LXRα): 25%
effective dose of naringenin in cell culture [4]: 0.20 mM
HCV core protein secretion (in words) [4, 7]: inhibits
HCV positive strand RNA secretion (in words) [4, 7]: inhibits
inhibition at 200 µM ([4]; Hepatitis C virus, 200 μM naringenin, short-term (24 hrs), infected Huh-7.5.1 cells): 80%
inhibition of HCV (RNA) secretion, long-term treatment ([4]; long-term daily treatment of infected Huh7.5.1 cells, naringenin 200 μM, IFNα 1000 i.u.): 96±5%
ApoB secretion (in words) (ApoB [5]): Inhibition
decrease in ApoB secretion (ApoB [6]): 60%±7%
